Test results published in ChEMBL document CHEMBL5352452, “Design, synthesis and pharmacological evaluation of β-carboline derivatives as potential antitumor agent via targeting autophagy” (Eur J Med Chem, 2023).
The source made the active and inactive calls. The rule behind the calls is not given here.

Legend:
[1] = test system: HCT-116; assay: Induction of autophagy in ATG5 knockout human HCT-116 cells assessed as increase in LC3-II expression upto 4 uM measured after 24 hrs by Western blot analysis; assay type: functional, cell-based
[2] = test system: HCT-116; assay: Induction of apoptosis in human HCT-116 cells assessed as early apoptotic cells at 1 uM incubated for 24 hrs by annexin V FITC/propidium iodide staining based flow cytometry (reference value: 4.7%); assay type: functional
[3] = test system: HCT-116; assay: Induction of apoptosis in human HCT-116 cells assessed as viable cells at 1 uM incubated for 24 hrs in presence of Z-VAD-FMK by annexin V FITC/propidium iodide staining based flow cytometry (reference value: 86.2 %); assay type: functional; conditions: read-out: Activity
[4] = test system: HCT-116; assay: Downregulation of Myc-v1 in human HCT-116 cells at 2 uM incubated for 24 hrs by RNA sequencing analysis; assay type: functional, cell-based
[5] = test system: HCT-116; assay: Antiproliferative activity against human HCT-116 cells assessed as inhibition of cell growth measured after 24 hrs by CCK-8 assay; assay type: functional, cell-based; conditions: HCT-116, 24 h
[6] = test system: HCT-116; assay: Downregulation of mTORC1 signaling pathway in human HCT-116 cells at 2 uM incubated for 24 hrs by RNA sequencing analysis; assay type: functional, cell-based
[7] = test system: HCT-116; assay: Induction of autophagy in human HCT-116 cells expressing assessed as LC3B-EGFP-mCherry at 2 to 4 uM incubated for 24 hrs by DAPI staining based confocal microscopic analysis; assay type: functional, cell-based; conditions: dose 2-4 µM
[8] = test system: HCT-116; assay: Induction of apoptosis in p53 knockout human HCT-116 cells assessed as increase in caspase 3 expression upto 5 uM incubated for 24 hrs by Western blot analysis; assay type: functional, cell-based
[9] = test system: HCT-116; assay: Induction of autophagy in human HCT-116 cells expressing ATG7-FLAG assessed as increase in LC3-II expression upto 4 uM measured after 24 hrs by Western blot analysis; assay type: functional, cell-based
[10] = test system: HCT-116; assay: Upregulation of Kras signaling pathway in human HCT-116 cells at 2 uM incubated for 24 hrs by RNA sequencing analysis; assay type: functional, cell-based
[11] = test system: HCT-116; assay: Induction of apoptosis in human HCT-116 cells assessed as increase in cleaved caspase 3 expression upto 5 uM incubated for 24 hrs by Western blot analysis; assay type: functional, cell-based
[12] = test system: HCT-116; assay: Antiproliferative activity against human HCT-116 cells expressing ATG7-FLAG assessed as inhibition of cell growth measured after 24 hrs by CCK-8 assay; assay type: functional, cell-based; conditions: HCT-116, 24 h
[13] = test system: HCT-116; assay: Induction of apoptosis in human HCT-116 cells assessed as necrotic cells at 2 uM incubated for 24 hrs by annexin V FITC/propidium iodide staining based flow cytometry (reference value: 7.7%); assay type: functional
[14] = test system: HCT-116; assay: Induction of autophagy in human HCT-116 cells expressing ATG5-FLAG assessed as increase in LC3-II expression upto 4 uM measured after 24 hrs by Western blot analysis; assay type: functional, cell-based
[15] = test system: HCT-116; assay: Induction of apoptosis in human HCT-116 cells assessed as early apoptotic cells at 1 uM incubated for 24 hrs in presence of Z-VAD-FMK by annexin V FITC/propidium iodide staining based flow cytometry (reference value: 6.3 %); assay type: functional
[16] = test system: HCT-116; assay: Inhibition of colony formation in ATG7 knockout human HCT-116 cells upto 4 uM […] by crystal violet staining based analysis; assay type: functional, cell-based
[17] = test system: HCT-116; assay: Induction of apoptosis in human HCT-116 cells assessed as early apoptotic cells at 2 uM incubated for 24 hrs by annexin V FITC/propidium iodide staining based flow cytometry (reference value: 4.7%); assay type: functional
[18] = test system: HCT-116; assay: Induction of morphological changes in human HCT-116 cells assessed as appearance of round cells at 2 to 6 uM measured after 24 hrs by microscopic analysis; assay type: functional, cell-based; conditions: dose 2-6 µM
[19] = test system: HCT-116; assay: Induction of apoptosis in human HCT-116 cells assessed as viable cells at 2 uM incubated for 24 hrs in presence of Z-VAD-FMK by annexin V FITC/propidium iodide staining based flow cytometry (reference value: 86.2 %); assay type: functional; conditions: read-out: Activity
[20] = test system: HCT-116; assay: Downregulation of oxidative phosphorylation gene in human HCT-116 cells at 2 uM incubated for 24 hrs by RNA sequencing analysis; assay type: functional, cell-based
[21] = test system: HCT-116; assay: Induction of apoptosis in human HCT-116 cells assessed as necrotic cells at 1 uM incubated for 24 hrs in presence of Z-VAD-FMK by annexin V FITC/propidium iodide staining based flow cytometry (reference value: 2.9 %); assay type: functional
[22] = test system: HCT-116; assay: Antiproliferative activity against p53 knockout human HCT-116 cells assessed as inhibition of cell growth measured after 24 hrs by CCK-8 assay; assay type: functional, cell-based; conditions: HCT-116, 24 h
[23] = test system: HCT-116; assay: Induction of apoptosis in human HCT-116 cells assessed as late apoptotic cells at 1 uM incubated for 24 hrs by annexin V FITC/propidium iodide staining based flow cytometry (reference value: 4.6%); assay type: functional
[24] = test system: HCT-116; assay: Induction of autophagy in human HCT-116 cells assessed as increase in p62 expression at 3 uM measured after 48 to 60 hrs by Western blot analysis; assay type: functional, cell-based; conditions: time 48-60 hrs
[25] = test system: HCT-116; assay: Induction of apoptosis in human HCT-116 cells assessed as late apoptotic cells at 2 uM incubated for 24 hrs in presence of Z-VAD-FMK by annexin V FITC/propidium iodide staining based flow cytometry (reference value: 4.6 %); assay type: functional
[26] = test system: HCT-116; assay: Induction of autophagy in human HCT-116 cells assessed as increase in LC3-II expression at 3 uM measured after 48 to 60 hrs by Western blot analysis; assay type: functional, cell-based; conditions: time 48-60 hrs
[27] = test system: HCT-116; assay: Induction of apoptosis in human HCT-116 cells assessed as viable cells at 2 uM incubated for 24 hrs by annexin V FITC/propidium iodide staining based flow cytometry (reference value: 83 %); assay type: functional; conditions: read-out: Activity
[28] = test system: HCT-116; assay: Upregulation of IFN-alpha response pathway in human HCT-116 cells at 2 uM incubated for 24 hrs by RNA sequencing analysis; assay type: functional, cell-based
[29] = test system: HCT-116; assay: Induction of apoptosis in ATG7 knockout human HCT-116 cells assessed as increase in caspase 3 expression upto 4 uM incubated for 24 hrs by Western blot analysis; assay type: functional, cell-based
[30] = test system: HCT-116; assay: Upregulation of hedgehog signaling pathway in human HCT-116 cells at 2 uM incubated for 24 hrs by RNA sequencing analysis; assay type: functional, cell-based
[31] = test system: HCT-116; assay: Induction of autophagy in human HCT-116 cells assessed as increase in p62 expression at 3 uM measured upto 36 hrs by Western blot analysis; assay type: functional, cell-based
[32] = Antiproliferative activity against human BIU-87 cells assessed as inhibition of cell growth measured after 48 hrs by MTT assay; assay type: functional, cell-based; conditions: BIU87, 48 h

CN1CCN(Cc2cc3c4ccccc4n(CCCc4ccccc4)c3c(CN3CCN(C)CC3)n2)CC1
Activity [1]: inactive
Activity [2]: 5.1%
viability at 1 µM [3]: 84.8%
Activity [4]: Active
IC50 [5]: 4.97 µM
Activity [6]: Active
Activity [7]: Active
Activity [8]: inactive
Activity [9]: Active
Activity [10]: Active
Activity [11]: inactive
IC50 [12]: 5.09 µM
Activity [13]: 4.9%
Activity [14]: Active
Activity [15]: 6.7%
inhibition [16]: inactive
Activity [17]: 6.2%
Activity [18]: Active
viability at 2 µM [19]: 83.7%
Activity [20]: Active
Activity [21]: 3.6%
IC50 [22]: 4.71 µM
Activity [23]: 5.6%
Activity [24]: inactive
Activity [25]: 4.6%
Activity [26]: inactive
viability at 2 µM [27]: 82.1%
Activity [28]: Active
Activity [29]: inactive
Activity [30]: Active
Activity [31]: Active
IC50 [32]: 4.53 µM
